Data taken from patent publication US20250382344A1, “Soluble GLP1/GIP/NPY2 Receptor Triple Agonists” (Boehringer Ingelheim International GmH, priority 2024, published 2025).

What was measured:
[1] = Solubility in 0.1 M phosphate buffer at pH 7; type: physicochemical; settings: 0.1 M phosphate buffer at pH 7, 10 mg/mL final peptide concentration, shaking 2 hours at room temperature, peptides as TFA-salts, measured sample pH 6.5-7.0; for solubility: read-out: Solubility
Description: Peptides (as TFA-salts) were weighed out in a filter unit (Mini-UniPrep Syringeless Filter 0.45 μm, Whatman PVDF), and 0.1 M phosphate buffer at pH 7 was added to achieve 10 mg/mL final peptide concentration. The peptides were dissolved by shaking the filter units horizontally at 600 rpm for 2 hours at room temperature. Samples were then filtered to remove any insoluble particles. Controls were prepared by weighing out the corresponding peptide solid material and dissolving it in an appropriate vehicle (e.g. ACN:H2O) to a final concentration of 1 mg/mL. Both, the control and sample were analyzed by reversed phase chromatography. The area under the peak of the sample was compared to the control and the solubility was calculated based on that ratio. The pH was measured and recorded for each sample.

[2] = molecular target: T1, hGIPR (Homo sapiens, UniProt P48546); experiment: hGIPR CreLuc assay in 0.5% and 100% plasma (CHO CRE-luciferase reporter cells); type: cell-based; settings: 0.5% human plasma, read-out: hGIPR 0.5% hP
T1 construct: expressed in transfected cells; host or cells: CHO CRE-luciferase reporter cells
T1 sequence (P48546 22-466): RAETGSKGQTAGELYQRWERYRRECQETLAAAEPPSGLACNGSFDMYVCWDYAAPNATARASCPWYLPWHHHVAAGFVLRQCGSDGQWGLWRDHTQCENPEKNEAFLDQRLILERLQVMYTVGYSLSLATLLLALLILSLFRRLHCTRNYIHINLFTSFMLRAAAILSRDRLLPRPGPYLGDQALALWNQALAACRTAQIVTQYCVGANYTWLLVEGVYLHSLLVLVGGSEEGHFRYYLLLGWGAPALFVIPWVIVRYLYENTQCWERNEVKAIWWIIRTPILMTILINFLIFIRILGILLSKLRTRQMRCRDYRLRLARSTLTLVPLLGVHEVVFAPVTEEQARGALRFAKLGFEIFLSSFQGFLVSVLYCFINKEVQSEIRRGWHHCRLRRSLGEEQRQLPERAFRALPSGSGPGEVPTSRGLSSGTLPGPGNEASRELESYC
Source text: CHO and HEK-293 recombinant cell lines express a luciferase reporter gene under control of the CAMP responsive element (CRE). As a second recombinant protein the GLP-1 and NPY2 receptors were expressed in the reporter gene HEK cells, and the GIP receptor was expressed in the reporter gene CHO cells, respectively. Stimulation of these recombinant cells with an agonist leads to an increase of intracellular CAMP levels. In the presence of CAMP, the transcription factor CRE binding protein (CREB) binds to the CRE and to the CREB binding protein (CBP), which leads to transcription of the luciferase reporter gene. Peptides upon serial-dilution in 100% DMSO were transferred into 384-well assay plates with 5 μl pre-dispensed assay buffer (1×HBSS, 20 mM HEPES, pH7.4 supplemented with 0.5% human plasma) using acoustic dispensing on a Labcyte ECHO. Cryo-preserved transgenic reporter gene cells were thawed in assay buffer. 20 μl (10.000 cells/well) were added to the plate with the peptides and incubated for 4 hours at 37° C. in a humidified incubator. Following incubation, assay plates are equilibrated to room temperature, followed by addition of 25 μl of Bright-Glo™ Luciferase reagent, incubation at room temperature for 10 minutes and analysis of luminescence (Envision Reader). […] EC50 values were calculated by non-linear regression using sigmoid concentration-response with variable slope.
The same assays were run in the presence of 100% plasma with no additional buffer constituents.

Row | solubility [1] [µg/mL] | SMILES | other results
1 | 8100 | CC[C@H](C)[C@H](NC(=O)[C@H](CCCCN)NC(=O)[C@H](CCC(=O)O)NC(=O)[C@H](CC(C)C)NC(=O)C(C)(C)NC(=O)[C@@H](NC(=O)[C@H](CO)NC(=O)[C@H](Cc1ccc(O)cc1)NC(=O)[C@H](CC(=O)O)NC(=O)[C@H](CO)NC(=O)[C@@H](NC(=O)[C@H](Cc1ccccc1)NC(=O)[C@@H](NC(=O)CNC(=O)[C@H](CCC(=O)O)NC(=O)C(C)(C)NC(=O)[C@@H](N)Cc1ccc(O)cc1)[C@@H](C)O)[C@@H](C)O)[C@@H](C)CC)C(=O)N[C@@H](C)C(=O)N[C@@H](CCC(N)=O)C(=O)NC(C)(C)C(=O)N[C@@H](C)C(=O)N[C@@H](Cc1ccccc1)C(=O)N[C@H](C(=O)N[C@@H](CCCNC(=N)N)C(=O)N[C@@H](Cc1c[nH]cn1)C(=O)N[C@@H](CC(C)C)C(=O)N[C@H](C(=O)N[C@@H](CC(N)=O)C(=O)N[C@@H](CCCCNC(=O)[C@@H](N)CCCCNC(=O)CC[C@H](NC(=O)CC[C@H](NC(=O)CC[C@H](NC(=O)CC[C@H](NC(=O)CC[C@H](NC(=O)CC[C@H](NC(=O)CCCCCCCCCCCCCCCCC(=O)O)C(=O)O)C(=O)O)C(=O)O)C(=O)O)C(=O)O)C(=O)O)C(=O)NC(C)(C)C(=O)N[C@H](C(=O)N[C@@H](CCCNC(=N)N)C(=O)N[C@@H](CCC(N)=O)C(=O)N[C@@H](CCCNC(=N)N)C(=O)N[C@@H](Cc1ccc(O)cc1)C(N)=O)[C@@H](C)O)[C@@H](C)CC)C(C)C [Compound 24, Y-Aib-E-G-T-F-T-S-D-Y-S-I-Aib-L-E-K-I-A-Q-Aib-A-F-V-R-H-L-I-N-K(1,3)-Aib-T-R-Q-R-Y-NH2.C18DA-gGlu-gGlu-gGlu-gGlu-gGlu-gGlu-eLys(1,2)] | –
2 | 10000 | CC[C@H](C)[C@H](NC(=O)[C@H](CC(C)C)NC(=O)[C@H](Cc1c[nH]cn1)NC(=O)[C@H](CCCNC(=N)N)NC(=O)[C@@H](NC(=O)[C@H](Cc1ccccc1)NC(=O)[C@H](C)NC(=O)C(C)(C)NC(=O)[C@H](CCC(N)=O)NC(=O)[C@H](C)NC(=O)[C@H](CCC(=O)O)NC(=O)[C@H](CCCCN)NC(=O)[C@H](CCC(=O)O)NC(=O)[C@H](CC(C)C)NC(=O)C(C)(C)NC(=O)[C@@H](NC(=O)[C@H](CO)NC(=O)[C@H](Cc1ccc(O)cc1)NC(=O)[C@H](CC(=O)O)NC(=O)[C@H](CO)NC(=O)[C@@H](NC(=O)[C@H](Cc1ccccc1)NC(=O)[C@@H](NC(=O)CNC(=O)[C@H](CCC(=O)O)NC(=O)C(C)(C)NC(=O)[C@@H](N)Cc1ccc(O)cc1)[C@@H](C)O)[C@@H](C)O)[C@@H](C)CC)C(C)C)C(=O)N[C@@H](CC(N)=O)C(=O)N[C@@H](CCCCNC(=O)[C@@H](N)CCCCNC(=O)[C@H](CCC(=O)O)NC(=O)CC[C@H](NC(=O)CC[C@H](NC(=O)CC[C@H](NC(=O)CC[C@H](NC(=O)CC[C@H](NC(=O)CCCCCCCCCCCCCCCCCCC(=O)O)C(=O)O)C(=O)O)C(=O)O)C(=O)O)C(=O)O)C(=O)NC(C)(C)C(=O)N[C@H](C(=O)N[C@@H](CCCNC(=N)N)C(=O)N[C@@H](CCC(N)=O)C(=O)N[C@@H](CCCNC(=N)N)C(=O)N[C@@H](Cc1ccc(O)cc1)C(N)=O)[C@@H](C)O [Compound 28, Y-Aib-E-G-T-F-T-S-D-Y-S-I-Aib-L-E-K-E-A-Q-Aib-A-F-V-R-H-L-I-N-K(1,3)-Aib-T-R-Q-R-Y-NH2.C20DA-gGlu-gGlu-gGlu-gGlu-gGlu-gGlu-eLys(1,2)] | –
3 | – | CC[C@H](C)[C@H](NC(=O)[C@H](CC(C)C)NC(=O)[C@H](Cc1c[nH]cn1)NC(=O)[C@H](CCCNC(=N)N)NC(=O)[C@@H](NC(=O)[C@H](Cc1ccccc1)NC(=O)[C@H](C)NC(=O)C(C)(C)NC(=O)[C@H](CCC(N)=O)NC(=O)[C@H](CCC(=O)O)NC(=O)[C@H](CCC(N)=O)NC(=O)[C@H](CCCCN)NC(=O)[C@H](CCC(=O)O)NC(=O)[C@H](CC(C)C)NC(=O)C(C)(C)NC(=O)[C@@H](NC(=O)[C@H](CO)NC(=O)[C@H](Cc1ccc(O)cc1)NC(=O)[C@H](CC(=O)O)NC(=O)[C@H](CO)NC(=O)[C@@H](NC(=O)[C@H](Cc1ccccc1)NC(=O)[C@@H](NC(=O)CNC(=O)[C@H](CCC(=O)O)NC(=O)C(C)(C)NC(=O)[C@@H](N)Cc1ccc(O)cc1)[C@@H](C)O)[C@@H](C)O)[C@@H](C)CC)C(C)C)C(=O)N[C@@H](CC(N)=O)C(=O)N[C@@H](CCCCNC(=O)[C@@H](N)CCCCNC(=O)CC[C@H](NC(=O)CC[C@H](NC(=O)CC[C@H](NC(=O)CC[C@H](NC(=O)CC[C@H](NC(=O)CC[C@H](NC(=O)CCCCCCCCCCCCCCCCC(=O)O)C(=O)O)C(=O)O)C(=O)O)C(=O)O)C(=O)O)C(=O)O)C(=O)NC(C)(C)C(=O)N[C@H](C(=O)N[C@@H](CCCNC(=N)N)C(=O)N[C@@H](CCC(N)=O)C(=O)N[C@@H](CCCNC(=N)N)C(=O)N[C@@H](Cc1ccc(O)cc1)C(N)=O)[C@@H](C)O [Compound 36, Y-Aib-E-G-T-F-T-S-D-Y-S-I-Aib-L-E-K-Q-E-Q-Aib-A-F-V-R-H-L-I-N-K(1,3)-Aib-T-R-Q-R-Y-NH2.C18DA-gGlu-gGlu-gGlu-gGlu-gGlu-gGlu-eLys(1,2)] | solubility at 2 h [1]: 5000 µg/mL
4 | 9500 | CC[C@H](C)[C@H](NC(=O)[C@H](CC(C)C)NC(=O)[C@H](Cc1c[nH]cn1)NC(=O)[C@H](CCCNC(=N)N)NC(=O)[C@@H](NC(=O)[C@H](Cc1ccccc1)NC(=O)[C@H](C)NC(=O)C(C)(C)NC(=O)[C@H](CCC(N)=O)NC(=O)[C@H](C)NC(=O)[C@H](CCC(N)=O)NC(=O)[C@H](CCC(=O)O)NC(=O)[C@H](CC(=O)O)NC(=O)[C@H](CC(C)C)NC(=O)C(C)(C)NC(=O)[C@@H](NC(=O)[C@H](CO)NC(=O)[C@H](Cc1ccc(O)cc1)NC(=O)[C@H](CC(=O)O)NC(=O)[C@H](CO)NC(=O)[C@@H](NC(=O)[C@H](Cc1ccccc1)NC(=O)[C@@H](NC(=O)CNC(=O)[C@H](CCC(=O)O)NC(=O)C(C)(C)NC(=O)[C@@H](N)Cc1ccc(O)cc1)[C@@H](C)O)[C@@H](C)O)[C@@H](C)CC)C(C)C)C(=O)N[C@@H](CC(N)=O)C(=O)N[C@@H](CCCCNC(=O)[C@@H](N)CCCCNC(=O)CC[C@H](NC(=O)[C@H](CCC(=O)O)NC(=O)CC[C@H](NC(=O)CC[C@H](NC(=O)CC[C@H](NC(=O)CC[C@H](NC(=O)CCCCCCCCCCCCCCCCC(=O)O)C(=O)O)C(=O)O)C(=O)O)C(=O)O)C(=O)O)C(=O)NC(C)(C)C(=O)N[C@H](C(=O)N[C@@H](CCCNC(=N)N)C(=O)N[C@@H](CCC(N)=O)C(=O)N[C@@H](CCCNC(=N)N)C(=O)N[C@@H](Cc1ccc(O)cc1)C(N)=O)[C@@H](C)O [Compound 40, Y-Aib-E-G-T-F-T-S-D-Y-S-I-Aib-L-D-E-Q-A-Q-Aib-A-F-V-R-H-L-I-N-K(1,3)-Aib-T-R-Q-R-Y-NH2.C18DA-gGlu-gGlu-gGlu-gGlu-gGlu-gGlu-eLys(1,2)] | –
5 | – | CC[C@H](C)[C@H](NC(=O)[C@H](CO)NC(=O)[C@H](Cc1ccc(O)cc1)NC(=O)[C@H](CC(=O)O)NC(=O)[C@H](CO)NC(=O)[C@@H](NC(=O)[C@H](Cc1ccccc1)NC(=O)[C@@H](NC(=O)CNC(=O)[C@H](CCC(=O)O)NC(=O)C(C)(C)NC(=O)[C@@H](N)Cc1ccc(O)cc1)[C@@H](C)O)[C@@H](C)O)C(=O)NC(C)(C)C(=O)N[C@@H](CC(C)C)C(=O)N[C@@H](CCC(=O)O)C(=O)N[C@@H](CCCCN)C(=O)N[C@@H](CCC(N)=O)C(=O)N[C@@H](C)C(=O)N[C@@H](CCC(N)=O)C(=O)NC(C)(C)C(=O)N[C@@H](C)C(=O)N[C@@H](Cc1ccccc1)C(=O)N[C@H](C(=O)N[C@@H](CCCNC(=N)N)C(=O)N[C@@H](Cc1c[nH]cn1)C(=O)N[C@@H](CC(C)C)C(=O)N[C@@H](CC(C)C)C(=O)N[C@@H](CC(N)=O)C(=O)N[C@@H](CCCCNC(=O)[C@@H](N)CCCCNC(=O)CC[C@H](NC(=O)CC[C@H](NC(=O)CC[C@H](NC(=O)CC[C@H](NC(=O)CC[C@H](NC(=O)CC[C@H](NC(=O)CCCCCCCCCCCCCCCCCCC(=O)O)C(=O)O)C(=O)O)C(=O)O)C(=O)O)C(=O)O)C(=O)O)C(=O)NC(C)(C)C(=O)N[C@H](C(=O)N[C@@H](CCCNC(=N)N)C(=O)N[C@@H](CCC(N)=O)C(=O)N[C@@H](CCCNC(=N)N)C(=O)N[C@@H](Cc1ccc(O)cc1)C(N)=O)[C@@H](C)O)C(C)C [Compound 80, Y-Aib-E-G-T-F-T-S-D-Y-S-I-Aib-L-E-K-Q-A-Q-Aib-A-F-V-R-H-L-L-N-K(1,3)-Aib-T-R-Q-R-Y-NH2.C20DA-gGlu-gGlu-gGlu-gGlu-gGlu-gGlu-eLys(1,2)] | EC50 [2]: 1.7 nM
